Assay results: PubChem BioAssay (NCI)
Values joined by “and” are separate entries in the source; they are usually repeats but may differ in a detail not shown here. Equal values may be shown once.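 Five concentrations, 48 hours, 96-well plates. At the GI50, growth is halved. TGI denotes the concentration required for complete inhibition of growth.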

How the values were obtained:
Test in all cases: NCI anticancer screen, dose series, 48 h
SF-268 CNS = test system: SF-268 CNS
SN12C renal = test system: SN12C renal
MOLT-4 leukemia = test system: MOLT-4 leukemia
SW-620 colon = test system: SW-620 colon
HCT-116 colon = test system: HCT-116 colon
HCC-2998 colon = test system: HCC-2998 colon
DU-145 prostate = test system: DU-145 prostate
RXF 393 renal = test system: RXF 393 renal

| SMILES | GI50 (SF-268 CNS) | TGI (SF-268 CNS) | GI50 (SN12C renal) [µM] | TGI (SN12C renal) | GI50 (MOLT-4 leukemia) [µM] | TGI (MOLT-4 leukemia) | GI50 (SW-620 colon) | TGI (SW-620 colon) | GI50 (HCT-116 colon) | TGI (HCT-116 colon) | GI50 (HCC-2998 colon) | TGI (HCC-2998 colon) | GI50 (DU-145 prostate) [µM] | TGI (DU-145 prostate) | GI50 (RXF 393 renal) | TGI (RXF 393 renal) |
| --- | --- | --- | --- | --- | --- | --- | --- | --- | --- | --- | --- | --- | --- | --- | --- | --- |
| NCCSC(C[N+](=O)[O-])c1ccccc1Cl (stereo unspecified) | 2.79 µM | 8.53 µM | 7.33 | 21.9 µM | 10.2 | > 25.8 µM | 1.82 µM | 4.05 µM | 1.18 µM | 3.08 µM | 2.1 µM | 4.03 µM | 1.92 | 3.62 µM | 2.27 µM | 11.1 µM |
| COc1cc(NC(=O)c2cc(O)c(C/C=C(\C)CCC=C(C)C)c(O)c2)cc2c1O[C@]1(C)CC[C@@H](O)C(C)(C)[C@H]1C2 | 1.56 µM | 5.74 µM | 2.9 | 12.1 µM | 0.409 | 5.83 µM | 2.62 µM | 13.1 µM | 2.07 µM | 12.3 µM | 2.21 µM | 7.22 µM | 2.25 | 12.2 µM | 0.209 µM | 0.747 µM |
| O=C(Cn1c2ccccc2c2ccncc21)N/N=C\c1ccc2ccccc2c1 | 18.7 µM | 91.6 µM | 14.7 | 46.6 µM | 16.7 | > 100 µM | 12.7 µM | > 100 µM | 3.51 µM | 15 µM | 35.9 µM | > 100 µM | 23.9 | > 100 µM | 19 µM | 54.4 µM |
| CN(C)N=Nc1nn(C(=O)Nc2ccc(Cc3ccccc3)cc2)c2ccccc12 | 17.1 µM | > 100 µM | > 100 | > 100 µM | 7.47 | > 100 µM | 0.199 µM | > 100 µM | > 100 µM | > 100 µM | 0.802 µM | > 47.7 µM | > 100 | > 100 µM | > 28.9 µM | > 100 µM |
| Nc1nc(Cl)nc2c1ncn2[C@@H]1O[C@H](COS(N)(=O)=O)[C@@H](O)[C@H]1O | 0.0234 µM and 0.0269 µM | 0.0768 µM and 0.088 µM | 0.00377 | 0.0417 µM and 0.0868 µM | 0.0109 | 0.391 µM and 0.0457 µM | 0.0256 µM and 0.0312 µM |  | 0.0183 µM and 0.0251 µM | 0.104 µM and 0.0767 µM | 0.0191 µM and 0.0226 µM | 0.0382 µM and 0.0498 µM | 0.00413 | 0.0349 µM and 0.0301 µM | 0.019 µM and 0.0229 µM | 0.0475 µM and 0.0496 µM |
| O=C(CN1C(=O)S/C(=C\C(Cl)=C\c2ccccc2)C1=O)NCCCn1ccnc1 | 2.52 µM | 7.65 µM | 2.26 | 7.49 µM | 2.1 | 7.57 µM | 1.72 µM | 3.67 µM | 1.53 µM | 3.14 µM | 1.88 µM | 3.57 µM | 2.22 | 5.64 µM | 1.83 µM | 3.68 µM |
| O=c1[nH]nc(-c2ccccc2)c2c(-c3ccccc3)onc12 | 0.969 µM | > 77.8 µM | 0.748 | > 100 µM | 0.564 | > 65.3 µM | 0.319 µM | > 100 µM | 0.333 µM | > 100 µM | 39.7 µM | > 96.3 µM | 1.79 | 27.2 µM | 1.19 µM | > 37.9 µM |
| COc1cc(-c2oc3c(OC)c(O)cc(O)c3c(=O)c2OC)ccc1O |  | > 23.3 µM |  | > 100 µM |  | 29.4 µM |  | > 100 µM |  | > 100 µM |  | 50.4 µM |  | > 81.5 µM |  | 51.5 µM |
| CNC(=O)c1cncc(/C=C/c2c(Cl)cccc2Cl)c1 | 22.7 µM | > 25 µM | > 21 | > 25 µM | > 21.9 | > 25 µM | > 25 µM | > 25 µM | > 25 µM | > 25 µM | > 25 µM | > 25 µM | > 25 | > 25 µM | 8.89 µM | > 25 µM |
| O=C1COCCN1c1ccc(NCc2cn(C(=O)c3ccc(Cl)cc3)c3ccccc23)cc1 | 13.4 µM | 95.1 µM | 4.96 | 69.3 µM | 5.66 | 47.8 µM | 2.23 µM | > 100 µM | 0.247 µM | 19.8 µM | 12.1 µM | 88.4 µM | 8.76 | > 100 µM | 3.09 µM | 18.3 µM |
| Cc1cc(Cl)ccc1Nc1nc(C(F)(F)F)ccc1C(=O)Nc1cccc(C(F)(F)F)c1 | 4.22 µM | 16.6 µM | 3.23 | 11.6 µM | 3.04 | 13.3 µM | 4.23 µM | 16.6 µM |  |  | 3.3 µM | 15.7 µM | 3.17 | 15.6 µM | 3.58 µM | 27.5 µM |
| O=C1C=C(OCCCl)C(=O)c2c(O)ccc(O)c21 | 3.98 µM | 2.6 µM and 15.3 µM | 1.58 | 0.526 µM and 3.03 µM | 0.368 | 6.5 µM and 1.58 µM | 0.296 µM and 1.56 µM | 1.15 µM and 3.85 µM | 1.33 µM | 1.33 µM and 3.2 µM | 1.12 µM | 3.03 µM and 2.47 µM | 1.01 | 0.746 µM and 2.29 µM |  | 3.38 µM and 3.96 µM |
| O=C1NC(c2ccccc2)N=C2Oc3ccccc3C=C12 (stereo unspecified) |  | > 84.7 µM |  | > 100 µM |  | > 100 µM |  | > 100 µM |  | > 100 µM |  | 0.238 µM |  | > 100 µM |  | > 100 µM |
| C=C1C(=O)O[C@H]2[C@H]1CC/C(CNC(=O)/C=C/c1ccc(Cl)cc1Cl)=C\CC[C@@]1(C)O[C@@H]21 | 1.09 µM | 2.67 µM | 1.73 | 4.08 µM | 0.275 | 1.58 µM | 1.28 µM | 2.68 µM | 0.647 µM | 2 µM | 1.56 µM | 2.98 µM | 0.594 | 1.89 µM | 0.403 µM | 1.63 µM |
| CN(CCCN(C)CCC1CCCCC1)CCC1CCCCC1 | 5.14 µM | 18.9 µM | 6.49 | 20.6 µM | 2.4 | 7.3 µM | 2.28 µM | 6.84 µM | 2.52 µM | 7.45 µM | 1.6 µM | 3.23 µM | 8.51 | 20.8 µM | 0.946 µM | 3.54 µM |
| COc1ccc(OC)c(/C=N/N=C2\C(=O)Nc3c(Cl)cc(Cl)cc32)c1 |  |  |  | > 100 µM |  | > 100 µM |  | > 100 µM |  | > 100 µM |  | > 100 µM |  |  |  | > 100 µM |
